In patent EP3169154B1, “DILUENT FOR SEMEN PRESERVATION” (Politécnico Colombiano Jaime Isaza Cadavid, priority 2014, dated 2016):

Assays:
[1] = test system: semen ejaculates; assay: Inhibition of ROS production in semen ejaculates; type: cell-based; settings: for inhibition at 20 µM: 20 µM in diluent of Example 1; for inhibition at 40 µM: 40 µM in diluent of Example 1; for inhibition at 50 µM: 50 µM in diluent of Example 1; for inhibition at 60 µM: 60 µM in diluent of Example 1; for inhibition at 80 µM: 80 µM in diluent of Example 1; for inhibition at 100 µM: 100 µM in diluent of Example 1
Method: (§1) Two diluents are prepared in accordance with Example 1, adding isoespintanol to one of them, and thymol to the other. In order to determine the cytoprotective (antioxidant) potential of each, the effects of adding different concentrations of these compounds to semen ejaculates were studied. The inhibition of ROS production and the reduction of lipid peroxidation were assessed, thereby determining the effective range as well as the maximum inhibitory concentration of thymol and isoespintanol (Tables 2 and 3). Table 2. Results of the inhibition of ROS production

[2] = test system: semen ejaculates; assay: Lipid peroxidation inhibition in semen ejaculates; type: cell-based; settings: for inhibition at 20 µM: 20 µM in diluent of Example 1; for inhibition at 40 µM: 40 µM in diluent of Example 1; for inhibition at 50 µM: 50 µM in diluent of Example 1; for inhibition at 60 µM: 60 µM in diluent of Example 1; for inhibition at 80 µM: 80 µM in diluent of Example 1; for inhibition at 100 µM: 100 µM in diluent of Example 1
Method: as §1

[3] = test system: carrageenan-induced foot inflammation; settings: some rodents; cited from earlier work
[4] = test system: interleukin-1β; settings: cited from earlier work

Row | Structure (SMILES) | inhibition at 20 µM [1] [%] | inhibition at 40 µM [1] [%] | inhibition at 50 µM [1] [%] | inhibition at 60 µM [1] [%] | inhibition at 80 µM [1] [%] | inhibition at 100 µM [1] [%] | inhibition at 20 µM [2] [%] | inhibition at 40 µM [2] [%] | inhibition at 50 µM [2] [%] | inhibition at 60 µM [2] [%] | inhibition at 80 µM [2] [%] | inhibition at 100 µM [2] [%] | reduction of carrageenan-induced foot inflammation [3] [%] | reduction of interleukin-1β production [4] [%]
1 | COc1cc(C)c(OC)c(O)c1C(C)C [isoespintanol, 2-isopropyl-3,6-dimethoxy-5-methylphenol] | 16 | 24.2 | 34.5 | 16.9 | 6.1 | 5.6 | 21.1 | 29.9 | 29.4 | 51.1 | 42.1 | 29.8 | 43 | ≤ 72
2 | Cc1ccc(C(C)C)c(O)c1 [thymol, 2-isopropyl-5-methylphenol, reference compound] | 11.7 | 12.3 | 51.2 | 26 | 21 | 27.6 | 48.1 | 47.7 | 40.8 | 36.6 | 47 | 28.3 |  | 
